Reference: patent US20240342292A1, “Compounds for the Degradation of EGFR Kinase” (BeiGene Switzerland GmbH, priority 2021, published 2024)

Columns and labels:
[1] = test system: Del19/T790M/C797S EGFR; assay: EGFR degradation HTRF assay in H1975-clone #28 (DTC) cells; assay type: cell-based; conditions: H1975 # 28 DTC (Del19/T790M/C797S), 16h treatment; for DC50: HTRF; for Dmax (%): maximum percentage of degradation
How it was run: (§1)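 EGFR levels quantified by HTRF on lysates after 16 h compound exposure (top 10 uM, 5-fold, 8 points) in single-cell H1975 clones expressing only exogenous mutant EGFR after sgRNA knockout of endogenous copies. DC50 derived by four-parameter logistic fitting of inhibition percentage.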

[2] = target: T1, L858R/T790M/C797S EGFR (Homo sapiens, UniProt P00533, C797S/L858R/T790M); assay: EGFR degradation HTRF assay in H1975-clone #25 (LTC) cells; assay type: cell-based; conditions: 16h treatment; for DC50: H1975 # 25-LTC (L858R/T790M/C797S), HTRF; for Dmax: NCI-H1975, H1975 # 25-LTC (L858R/T790M/C797S), maximum percentage of degradation
T1 construct: expressed in transfected cells; host or cells: H1975 clone #25 (lentiviral over-expression, endogenous EGFR knocked out by sgRNA)
How it was run: as §1

T1 sequence (P00533 25-1210 T790M/C797S/L858R): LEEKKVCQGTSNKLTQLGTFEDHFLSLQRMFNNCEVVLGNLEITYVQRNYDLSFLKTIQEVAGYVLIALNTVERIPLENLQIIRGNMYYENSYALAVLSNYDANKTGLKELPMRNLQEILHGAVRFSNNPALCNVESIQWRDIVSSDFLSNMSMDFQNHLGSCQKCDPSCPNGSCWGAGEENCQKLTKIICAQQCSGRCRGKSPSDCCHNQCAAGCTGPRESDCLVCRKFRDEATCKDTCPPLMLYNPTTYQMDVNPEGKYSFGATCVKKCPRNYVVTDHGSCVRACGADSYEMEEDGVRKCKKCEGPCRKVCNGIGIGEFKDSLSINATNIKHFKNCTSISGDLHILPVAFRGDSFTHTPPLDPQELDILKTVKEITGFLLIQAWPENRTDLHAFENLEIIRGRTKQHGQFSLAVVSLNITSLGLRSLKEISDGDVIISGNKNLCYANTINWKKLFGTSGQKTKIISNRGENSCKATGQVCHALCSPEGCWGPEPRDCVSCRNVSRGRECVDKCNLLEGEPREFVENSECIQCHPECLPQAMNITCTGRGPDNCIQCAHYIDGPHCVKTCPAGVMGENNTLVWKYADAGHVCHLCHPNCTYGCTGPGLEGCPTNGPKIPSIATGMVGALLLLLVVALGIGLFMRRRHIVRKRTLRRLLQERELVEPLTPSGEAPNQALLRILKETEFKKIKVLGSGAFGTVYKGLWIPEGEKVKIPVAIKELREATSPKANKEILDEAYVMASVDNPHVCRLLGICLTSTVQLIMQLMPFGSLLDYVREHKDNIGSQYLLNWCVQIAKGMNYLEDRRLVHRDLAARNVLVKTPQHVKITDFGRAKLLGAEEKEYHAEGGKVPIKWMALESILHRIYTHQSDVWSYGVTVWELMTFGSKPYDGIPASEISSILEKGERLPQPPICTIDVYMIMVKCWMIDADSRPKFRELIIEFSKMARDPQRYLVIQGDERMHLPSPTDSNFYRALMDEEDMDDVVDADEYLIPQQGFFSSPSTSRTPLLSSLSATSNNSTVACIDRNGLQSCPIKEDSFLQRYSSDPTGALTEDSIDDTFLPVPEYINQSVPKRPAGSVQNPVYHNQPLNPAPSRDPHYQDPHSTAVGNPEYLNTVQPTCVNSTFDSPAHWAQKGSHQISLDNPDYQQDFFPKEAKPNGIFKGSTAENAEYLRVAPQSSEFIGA

DC50 [1]	DC50 [2]	Dmax [2]	SMILES	Dmax (%) [1]
0.578 nM	0.464 nM	87.8%	Cc1cc2cc(n1)-c1cnn(C)c1OCCC[C@@H](C)CN1/C(=N/C2=O)Nc2ccc(C(=O)N3CCC4(CC3)CN(CCc3cc(F)c([C@H]5CCC(=O)NC5=O)c(F)c3)C4)cc21 [Example 310, (R)-3-(2,6-difluoro-4-(2-(7-((R,E)-1^1,2^6,7-trimethyl-3-oxo-5^2,5^3-dihydro-1^1H,5^1H-11-oxa-4-aza-5(2,1)-benzo[d]imidazola-2(2,4)-pyridina-1(4,5)-pyrazolacycloundecaphane-5^6-carbonyl)-2,7-diazaspirononan-2-yl)ethyl)phenyl)piperidine-2,6-dione]	80.51%
0.689 nM	0.906 nM	85.8%	Cc1cc2cc(n1)-c1cnn(C)c1OCCC[C@@H](C)CN1/C(=N/C2=O)Nc2ccc(C(=O)N3CCC(C4CN(CCc5cc(F)c([C@H]6CCC(=O)NC6=O)c(F)c5)C4)CC3)cc21 [Example 312, (R)-3-(2,6-difluoro-4-(2-(3-(1-((R,E)-1^1,2^6,7-trimethyl-3-oxo-5^2,5^3-dihydro-1^1H,5^1H-11-oxa-4-aza-5(2,1)-benzo[d]imidazola-2(2,4)-pyridina-1(4,5)-pyrazolacycloundecaphane-5^6-carbonyl)piperidin-4-yl)azetidin-1-yl)ethyl)phenyl)piperidine-2,6-dione]	47.95%
0.967 nM	1.25 nM	81%	Cc1cc2cc(n1)-c1cnn(C)c1OCCC[C@@H](C)CN1/C(=N/C2=O)Nc2ccc(C(=O)OC3CCN(CCc4cc(F)c([C@H]5CCC(=O)NC5=O)c(F)c4)CC3)cc21 [Example 313, 1-(4-((R)-2,6-dioxopiperidin-3-yl)-3,5-difluorophenethyl)piperidin-4-yl (R,E)-1^1,2^6,7-trimethyl-3-oxo-5^2,5^3-dihydro-1^1H,5^1H-11-oxa-4-aza-5(2,1)-benzo[d]imidazola-2(2,4)-pyridina-1(4,5)-pyrazolacycloundecaphane-5^6-carboxylate]	70.56%
0.674 nM	0.591 nM	86.2%	Cc1cc2cc(n1)-c1cnn(C)c1OCCC[C@@H](C)CN1/C(=N/C2=O)Nc2ccc(N3CCN(CCc4cc(F)c([C@H]5CCC(=O)NC5=O)c(F)c4)CC3)cc21 [Example 320, (R)-3-(2,6-difluoro-4-(2-(4-((R,E)-1^1,26,7-trimethyl-3-oxo-5^2,5^3-dihydro-1^1H,5^1H-11-oxa-4-aza-5(2,1)-benzo[d]imidazola-2(2,4)-pyridina-1(4,5)-pyrazolacycloundecaphane-5^6-yl)piperazin-1-yl)ethyl)phenyl)piperidine-2,6-dione]	71.04%

More lines, now with the values behind:

SMILES	DC50 [1]	DC50 [2]	Dmax [2]	Dmax (%) [1]
Cc1cc2cc(n1)-c1cnn(C)c1OCCC[C@@H](C)CN1/C(=N/C2=O)Nc2ccc(C(=O)N(C)C3CN(C4CCN(c5cc(F)c([C@H]6CCC(=O)NC6=O)c(F)c5)CC4)C3)cc21 [Example 309, (R,E)-N-(1-(1-(4-((R)-2,6-dioxopiperidin-3-yl)-3,5-difluorophenyl)piperidin-4-yl)azetidin-3-yl)-N,1′,2^6,7-tetramethyl-3-oxo-5^2,5^3-dihydro-1^1H,5^1H-11-oxa-4-aza-5(2,1)-benzo[d]imidazola-2(2,4)-pyridina-1(4,5)-pyrazolacycloundecaphane-5^6-carboxamide]	0.684 nM	0.459 nM	83%	65.2%
Cc1cc2cc(n1)-c1cnn(C)c1OCCC[C@@H](C)CN1/C(=N/C2=O)Nc2ccc(C(=O)N(C)C3CCN(CCc4cccc5c4n(C)c(=O)n5C4CCC(=O)NC4=O)CC3)cc21 (stereo partly drawn) [Example 314, (7R,E)-N-(1-(2-(1-(2,6-dioxopiperidin-3-yl)-3-methyl-2-oxo-2,3-dihydro-1H-benzo[d]imidazol-4-yl)ethyl)piperidin-4-yl)-N,1^1,2^6,7-tetramethyl-3-oxo-5^2,5′-dihydro-1^1H,5^1H-11-oxa-4-aza-5(2,1)-benzo[d]imidazola-2(2,4)-pyridina-1(4,5)-pyrazolacycloundecaphane-5^6-carboxamide]	3.37 nM	2.59 nM	75.3%	50.86%
Cc1cc2cc(n1)-c1cnn(C)c1OCCC[C@@H](C)CN1/C(=N/C2=O)Nc2ccc(C(=O)N(C)C3CCN(CCc4cccc5c4oc(=O)n5C4CCC(=O)NC4=O)CC3)cc21 (stereo partly drawn) [Example 315, (7R,E)-N-(1-(2-(3-(2,6-dioxopiperidin-3-yl)-2-oxo-2,3-dihydrobenzo[d]oxazol-7-yl)ethyl)piperidin-4-yl)-N,1^1,2,7-tetramethyl-3-oxo-5^2,5^3-dihydro-1^1H,5^1H-11-oxa-4-aza-5(2,1)-benzo[d]imidazola-2(2,4)-pyridina-1(4,5)-pyrazolacycloundecaphane-5^6-carboxamide]	3.18 nM	1.37 nM	80.5%	63.86%
Cc1cc2cc(n1)-c1cnn(C)c1OCCC[C@@H](C)CN1/C(=N/C2=O)Nc2ccc(C(=O)N(C)C3CCN(CCc4cccc5c4C4(CC4)C(=O)N5C4CCC(=O)NC4=O)CC3)cc21 (stereo partly drawn) [Example 316, (7R,E)-N-(1-(2-(1′-(2,6-dioxopiperidin-3-yl)-2′-oxospiro[cyclopropane-1,3′-indolin]-4′-yl)ethyl)piperidin-4-yl)-N,1^1,2^6,7-tetramethyl-3-oxo-5^2,5′-dihydro-1^1H,5^1H-11-oxa-4-aza-5(2,1)-benzo[d]imidazola-2(2,4)-pyridina-1(4,5)-pyrazolacycloundecaphane-5^6-carboxamide]	0.925 nM	0.655 nM	77.9%	47.67%
Cc1cc2cc(n1)-c1cnn(C)c1OCCC[C@@H](C)CN1/C(=N/C2=O)Nc2ccc(C(=O)N(C)C3CCN(CCc4cccc5c4C(C)(C)C(=O)N5C4CCC(=O)NC4=O)CC3)cc21 (stereo partly drawn) [Example 317, (7R,E)-N-(1-(2-(1-(2,6-dioxopiperidin-3-yl)-3,3-dimethyl-2-oxoindolin-4-yl)ethyl)piperidin-4-yl)-N,1^1,2^6,7-tetramethyl-3-oxo-5^2,5^3-dihydro-1^1H,5^1H-11-oxa-4-aza-5(2,1)-benzo[d]imidazola-2(2,4)-pyridina-1(4,5)-pyrazolacycloundecaphane-5^6-carboxamide]	0.728 nM	1.14 nM	80.2%	52.86%
Cc1cc2cc(n1)-c1cnn(C)c1OCCC[C@@H](C)CN1/C(=N/C2=O)Nc2ccc(CN(C)[C@@H]3CCCN(C(=O)[C@@H]4CCN(c5cc(F)c([C@H]6CCC(=O)NC6=O)c(F)c5)C4)C3)cc21 [Example 318, (R)-3-(2,6-difluoro-4-((R)-3-((R)-3-(methyl(((R,E)-1^1,2^6,7-trimethyl-3-oxo-5^2,53-dihydro-1^1H,5^1H-11-oxa-4-aza-5(2,1)-benzo[d]imidazola-2(2,4)-pyridina-1(4,5)-pyrazolacycloundecaphane-5^6-yl)methyl)amino)piperidine-1-carbonyl)pyrrolidin-1-yl)phenyl)piperidine-2,6-dione]	0.995 nM	1.33 nM	76.4%	67.67%
Cc1cc2cc(n1)-c1cnn(C)c1OCCC[C@@H](C)CN1/C(=N/C2=O)Nc2ccc(CN(C)[C@H]3CCCN(C(=O)[C@@H]4CCN(c5cc(F)c([C@H]6CCC(=O)NC6=O)c(F)c5)C4)C3)cc21 [Example 319, (R)-3-(2,6-difluoro-4-((R)-3-((S)-3-(methyl(((R,E)-1^1,2^6,7-trimethyl-3-oxo-5^2,5^3-dihydro-1^1H,5′ H-11-oxa-4-aza-5(2,1)-benzo[d]imidazola-2(2,4)-pyridina-1(4,5)-pyrazolacycloundecaphane-5^6-yl)methyl)amino)piperidine-1-carbonyl)pyrrolidin-1-yl)phenyl)piperidine-2,6-dione]	0.643 nM	1.26 nM	83.4%	74.25%
Cc1cc2cc(n1)-c1cnn(C)c1OCCC[C@@H](C)CN1/C(=N/C2=O)Nc2ccc(N3CCN(CC4CN(c5cc(F)c([C@H]6CCC(=O)NC6=O)c(F)c5)C4)CC3)cc21 [Example 321, (R)-3-(2,6-difluoro-4-(3-((4-((R,E)-1^1,2^6,7-trimethyl-3-oxo-5^2,5^3-dihydro-1^1H,5^1H-11-oxa-4-aza-5(2,1)-benzo[d]imidazola-2(2,4)-pyridina-1(4,5)-pyrazolacycloundecaphane-5^6-yl)piperazin-1-yl)methyl)azetidin-1-yl)phenyl)piperidine-2,6-dione]	1.18 nM	1.17 nM	88.2%	73.52%
Cc1cc2cc(n1)-c1cnn(C)c1OCCC[C@@H](C)CN1/C(=N/C2=O)Nc2ccc(N3CCN(CC4CCN(c5cc(F)c([C@H]6CCC(=O)NC6=O)c(F)c5)CC4)CC3)cc21 [Example 322, (R)-3-(2,6-difluoro-4-(4-((4-((R,E)-1^1,2^6,7-trimethyl-3-oxo-5^2,5^3-dihydro-1^1H,5^1H-11-oxa-4-aza-5(2, 1)-benzo[d]imidazola-2(2,4)-pyridina-1(4,5)-pyrazolacycloundecaphane-5^6-yl)piperazin-1-yl)methyl)piperidin-1-yl)phenyl)piperidine-2,6-dione]	0.934 nM	1.21 nM	86.8%	74.99%
